Reference: patent US10420751B2, “Methods of treating inflammatory bowel disease with AMD3100 and tacrolimus” (priority 2009, dated 2019)
Where two headings read alike, the source gives them in different places.

How the values were obtained:
[1] = target: CXCR4 chomokin receptor (Homo sapiens, UniProt P61073); settings: Peled et al.; read-out: IC50, binds and inhibits CXCR4; cited from earlier work
[2] = tested on: skin allograft (DA into Lewis); assay: Skin allograft survival; settings: FK 0.1 mg/kg and/or AMD 1 mg/kg; controls rejected within 7 days
Experimental: DA rats or C57/B6 mice were used as skin donors and GFP transgenic Lewis rats were used as recipients. A graft bed (2.5×3 cm) was prepared on the back of a recipient rat; special care was given to preserving the panniculus carnosus. A 2.5×3 cm^2 graft, which had been prepared from the body trunk of a donor, was transplanted with interrupted sutures of 5-0 silk. The graft was covered with a protective tape and the first inspection was conducted 2 days after skin grafting and was followed by daily inspection. The rejection was defined as the day when the skin graft developed a red-brown color and hard consistency.
FK506 were injected subcutaneously every day following transplantation.

[3] = tested on: CD34+, c-Kit+, Thy-1+ and Sca1+ cells in peripheral blood; settings: after liver transplantation, compared to control animals, AMD3100 1 mg/kg/day s.c.
Experimental: Single-cell suspensions (5×10^5) of peripheral blood monocytes were analyzed for CD34, CXCR4, c-Kit, Thy-1, and Sea-1 expression. Nonspecific antibody binding was blocked with goat and rat serum (Sigma) for 30 minutes.

[4] = tested on: kidney allograft (DA to Lewis); assay: Orthotopic kidney transplantation, acute rejection model: survival; format: in vivo, rat; settings: FK 0.05 mg/kg and/or AMD 1 mg/kg s.c.; controls rejected within 10 days
Experimental: Specifically, the DA to Lewis model of acute rejection was studied. Briefly, donor kidneys obtained from male DA rats were flushed with 10 ml cold saline and were stored at 4° C. while the recipient to be prepared. Total cold ischemic time was no longer than 40 minutes. Lewis male recipients were transplanted following left native nephrectomy. The donor renal artery, vein and ureter were anastomosed to the recipient renal artery, vein and ureter. The anastomosis was completed using 10-0 silk sutures. The right native kidney was removed before closing the abdomen.
AMD3100 were injected subcutaneously immediately after reperfusion (day 0) and day 2, 4 and 6 following kidney transplantation. […] Treatments were repeated in combination treated group at 1, 2 and 3 months after transplantation. Some of animals were sacrificed at day 7 and 30 after transplantation and kidney tissue, spleen and peripheral blood were collected.

[5] = tested on: small liver allograft (DA into Lewis rats); assay: Small liver transplantation, acute rejection model: survival; settings: for recipient survival / liver allograft acceptance: small liver DA into Lewis, FK-506 0.1 mg/kg/day and/or AMD3100 1 mg/kg/day s.c. day 0,1,2,3,7, controls rejected within 12 days; for survival of one of five recipients: small liver, low dose FK-506 0.1 mg/kg/day alone
Experimental: Orthotopic liver transplantation (OLT) was performed under isoflurane (Abbott laboratories, North Chicago, Ill.) inhalation anesthesia according to a method modified from previously described. Small liver transplantation consisted of removal of the left lateral lobe, the left portion of the median lobe, and the anterior and posterior caudate lobes. This reduced the liver mass by about 50%. The livers were flushed in situ with 10 ml cold saline via the portal vein, explanted and immersed in cold saline solution. The host liver was excised by ligation and division of the right adrenal and lumbar veins. The hepatic artery was ligated and divided. The bile duct was cannulated by insertion of a tube 2 mm in length (outer diameter, 1.2 mm) via choledocotomy and secured with a circumferential 8-0 silk suture. […] The suprahepatic vena cava was pulled down using a cotton tape passed around the host liver and cross-clamped with a baby Statinksy clamp. The vessels were divided and liver was removed. The donor suprahepatic vena cava was anstomosed end-to-end with the host suprahepatic vena cava with running 8-0 prolene. The portal vein and infra hepatic vena cava were anastomosed using the cuff technique described previously. The common bile duct of the donor was cannulated with the small tube residing in the host bile duct and tied in place. The hepatic artery was not reconstructed.
Some of the animals were sacrificed at day 3, 7 and 10 after transplantation and liver tissue, spleen and peripheral blood were collected.
To test this hypothesis, liver transplants from dark agouti (DA) rats into Lewis rats, i.e. the rejection model were performed. Recipient rats were treated with a hematopoietic stem cell mobilizer (plerixafor) and/or low dose immunosuppressant (tacrolimus). Transplanted rats were divided into four groups: 1) a control group treated with saline), 2) treatment with low dose immunosuppressant (tacrolimus, 0.1 mg/kg/day), 3) stem cell mobilizer (plerixafor (AMD3100), 1 mg/kg/day) alone, or 4) a combination of low dose tacrolimus and plerixafor.
In small liver transplantation rats, plerixafor and/or tacrolimus were injected subcutaneously immediately after reperfusion and on days 1, 2, 3 and 7 following transplantation. In whole liver transplantation rats, plerixafor and/or tacrolimus were injected subcutaneously immediately after reperfusion and on days 1, 2, 3, 7, 10 and 15 following transplantation. Animals from each group were sacrificed on post-op days 3, 7 and 10 and liver tissue, spleen and peripheral blood were collected.

[6] = tested on: c-Kit+, CD133+, Lin− Thy1+c-Kit+CD133+ cells in peripheral blood; assay: Mobilization of stem cells into peripheral blood (CBC and flow cytometry); format: in vivo, rat; settings: 3 hours after injection
Experimental: Single-cell suspensions (5×10^5) of peripheral blood monocytes were analyzed for lineage negative CD34, CD133, Thy1, and c-Kit expression. Nonspecific antibody binding was blocked with goat and rat serum (Sigma) for 30 minutes. Peripheral blood cells were isolated from animals at 3 hours after injection with AMD and/or FK. Complete blood count (CBC) was measured and stem cell markers were quantified by flow cytometry. The absolute number of stem cells was calculated as WBC (-thous./μL)×% of stem cells.

[7] = tested on: liver allografts (DA into GFP-Lewis rats); assay: Histology (H&E), GFP microscopy and Xenogen imaging of small liver allografts; format: in vivo, rat; settings: liver allografts 7 days after transplantation, versus control group
Experimental: Transplanted rats were divided by four groups: (1) control group (treated with same volume of saline); (2) low dose of immunosuppressant (FK-506, 0.1 mg/kg/day); (3) stem cell mobilizer (AMD3100, 1 mg/kg/day); and (4) combination of low dose FK-506 and AMD3100. AMD3100 and/or FK-506 were injected subcutaneously immediately after reperfusion and day 1, 2, 3 and 7 following liver transplantation (FIG. 1). Some of the animals were sacrificed at day 3, 7 and 10 after transplantation and liver tissue, spleen and peripheral blood were collected.
Histological changes in liver tissue sections were evaluated by H&E staining. Recipient-derived GFP positive cells in liver tissue sections were analyzed by confocal fluorescence microscopy.
GFP whole-organ fluorescence was measured using the Xenogen system.

[8] = tested on: whole liver allograft (DA into Lewis rats); assay: Whole liver transplantation, rejection model: survival; settings: s.c. day 0,1,2,3,7,10,15, controls rejected within twelve days
Experimental: In whole liver transplantation rats, plerixafor and/or tacrolimus were injected subcutaneously immediately after reperfusion and on days 1, 2, 3, 7, 10 and 15 following transplantation.

[9] = tested on: skin xenograft (C57/B6 mice into Lewis rats); assay: Skin xenograft survival, mouse into rat; format: in vivo; settings: FK 0.1 mg/kg and/or AMD 1 mg/kg
[10] = tested on: cell migration stimulated by CXCL12; settings: Peled et al.; cited from earlier work

Chain of CXCR4 chomokin receptor (P61073 whole entry): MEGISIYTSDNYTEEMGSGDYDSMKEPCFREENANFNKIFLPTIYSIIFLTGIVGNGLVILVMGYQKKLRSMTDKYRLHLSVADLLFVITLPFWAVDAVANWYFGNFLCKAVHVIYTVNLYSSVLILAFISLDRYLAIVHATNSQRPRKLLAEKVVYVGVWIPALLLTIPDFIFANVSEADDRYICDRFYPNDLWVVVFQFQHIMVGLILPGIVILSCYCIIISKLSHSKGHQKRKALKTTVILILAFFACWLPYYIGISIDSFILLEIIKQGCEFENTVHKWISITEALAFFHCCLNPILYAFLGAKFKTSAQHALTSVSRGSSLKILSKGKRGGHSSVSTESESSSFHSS

Row | Molecule | IC50 [1] | skin allograft survival / acceptance [2] | percentage of CD34+, c-Kit+, Thy-1+ and Sca1+ cells in peripheral blood ([3]; listed as AMD) | percentage of CD34+, c-Kit+, Thy-1+ and Sca1+ cells in peripheral blood ([3]; listed as plerixafor) | recipient survival / kidney allograft acceptance [4] | recipient survival / liver allograft acceptance ([5]; listed as AMD) | recipient survival / liver allograft acceptance ([5]; listed as plerixafor) | absolute number of c-Kit+, CD133+ or Lin− and Thy1+c-Kit+CD133+ triple positive cells in peripheral blood ([6]; compared to saline or G-CSF treated animals) | mononuclear/inflammatory cellular infiltration in portal areas (H&E) ([7]; listed as AMD) | mononuclear/inflammatory cellular infiltration in portal areas (H&E) ([7]; listed as plerixafor) | recipient survival [8] | skin xenograft survival [9] | IC50 [10] | recipient survival / liver allograft acceptance ([5]; listed as FK-506) | recipient survival / liver allograft acceptance ([5]; listed as tacrolimus) | survival of one of five recipients [5] | survival of one of five recipients ([5]; 0.1 mg/kg/day) | c-Kit+ and CD133+ cells in peripheral blood ([6]; low-dose FK (0.1 mg/kg)) | mononuclear/inflammatory cellular infiltration in portal areas (H&E) [7] | mononuclear/inflammatory cellular infiltration in portal areas (H&E) ([7]; listed as FK-506)
1 | 4F-benzoyl-TN14003 [BKT140] | ~1 nM | – | – | – | – | – | – | – | – | – | – | – | – | – | – | – | – | – | – | –
2 | c1cc(CN2CCCNCCNCCCNCC2)ccc1CN1CCCNCCNCCCNCC1 [AMD3100, 1,1′-[1,4-phenylenebis(methylene)]bis-1,4,8,11-tetraazacyclo-tetradecane] | – | did not significantly prolong the allograft survival | significantly increase | significantly increased | did not prolong the recipient survival | did not significantly prolong the recipient survival | did not significantly prolong recipient survival | significantly increased | the number of infiltrating cells were less | the number of infiltrating cells was reduced | did not significantly prolong recipient survival | did not prolong the xenograft survival | 51 ± 17 nM | – | – | – | – | – | – | –
3 | C=CC[C@@H]1/C=C(\C)C[C@H](C)C[C@H](OC)[C@H]2O[C@@](O)(C(=O)C(=O)N3CCCC[C@H]3C(=O)O[C@H](/C(C)=C/[C@@H]3CC[C@@H](O)[C@H](OC)C3)[C@H](C)[C@@H](O)CC1=O)[C@H](C)C[C@@H]2OC [Tacrolimus] | – | did not significantly prolong the allograft survival | – | – | did not prolong the recipient survival | – | – | – | – | – | did not significantly prolong recipient survival | did not prolong the xenograft survival | – | did not significantly prolong the recipient survival | did not significantly prolong recipient survival | 4 months | more than 1 months | significantly increases | the number of infiltrating cells was reduced | the number of infiltrating cells were less
